Measurements as given in ChEMBL document CHEMBL1125108 (J Med Chem, 1990).
pIC50: −log10 of the molar value.

Assays:
Type in all cases: tissue-based
D(2) dopamine receptor = D(2) dopamine receptor (Rattus norvegicus, UniProt P61169); assay: Binding affinity for Dopamine receptor D2 using [3H]spiperone in rat brain
[1] = molecular target: Muscarinic acetylcholine receptor; assay: Binding affinity was determined against Muscarinic acetylcholine receptor using [3H]QNB as radioligand in rat brain.
D(1A) dopamine receptor = D(1A) dopamine receptor (Rattus norvegicus, UniProt P18901); assay: Binding affinity against Dopamine receptor D1 using […] in rat brain
D(1A) dopamine receptor, sequence (P18901 whole entry): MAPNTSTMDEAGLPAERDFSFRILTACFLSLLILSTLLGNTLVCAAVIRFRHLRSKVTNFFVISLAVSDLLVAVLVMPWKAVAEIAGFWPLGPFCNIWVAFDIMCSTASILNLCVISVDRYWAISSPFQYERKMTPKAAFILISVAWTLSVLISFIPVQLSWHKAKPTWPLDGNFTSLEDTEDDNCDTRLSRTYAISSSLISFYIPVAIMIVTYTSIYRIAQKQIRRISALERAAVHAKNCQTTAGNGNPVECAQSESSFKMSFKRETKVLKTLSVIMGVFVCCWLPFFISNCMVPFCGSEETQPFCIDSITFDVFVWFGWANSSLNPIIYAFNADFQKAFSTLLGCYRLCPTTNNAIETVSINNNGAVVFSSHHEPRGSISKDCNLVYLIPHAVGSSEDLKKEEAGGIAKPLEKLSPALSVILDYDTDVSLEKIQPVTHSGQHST

D(2) dopamine receptor, sequence (P61169 whole entry): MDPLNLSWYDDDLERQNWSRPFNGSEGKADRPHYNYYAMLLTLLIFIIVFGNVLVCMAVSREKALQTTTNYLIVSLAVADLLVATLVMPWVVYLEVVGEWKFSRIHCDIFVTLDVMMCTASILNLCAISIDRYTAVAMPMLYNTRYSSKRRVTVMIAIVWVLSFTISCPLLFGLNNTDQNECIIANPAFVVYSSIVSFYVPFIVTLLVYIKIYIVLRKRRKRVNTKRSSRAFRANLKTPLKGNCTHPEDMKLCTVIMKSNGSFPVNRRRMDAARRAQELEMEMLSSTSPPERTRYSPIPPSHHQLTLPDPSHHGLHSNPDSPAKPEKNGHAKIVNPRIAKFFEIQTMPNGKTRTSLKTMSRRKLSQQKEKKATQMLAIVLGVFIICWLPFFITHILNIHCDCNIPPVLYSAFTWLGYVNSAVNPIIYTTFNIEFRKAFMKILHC

SMILES | pIC50 (D(2) dopamine receptor) | IC50 [1] [nM] | pIC50 (D(1A) dopamine receptor)
CC(C)=C1c2ccc(Cl)cc2C=C(N2CCN(C)CC2)c2ccccc21 | 5.30 | 1750 | 6.35
C=C1c2ccc(Cl)cc2C=C(N2CCN(C)CC2)c2ccccc21 | 6.52 | 248 | 7.29
C=C1c2ccccc2C=C(N2CCN(C)CC2)c2cc(Cl)ccc21 | 7.57 | 330 | 8.10
CC(C)=C1c2ccccc2C=C(N2CCN(C)CC2)c2cc(Cl)ccc21 | < 5.00 | 297 | 6.88
CN1CCN(C2=Nc3ccccc3Nc3ccccc32)CC1 | < 5.00 |  | 
CC(C)=C1c2ccccc2C=C(N2CCN(C)CC2)c2ccccc21 | 5.32 | 415 | 6.27
C=C1c2ccccc2C=C(N2CCN(C)CC2)c2ccccc21 | 6.52 | 150 | 7.68
